From US8278359B2, “Compositions containing amines and use thereof to treat acne or reduce the appearance of oil or pores on the skin” (Johnson & Johnson Consumer Companies, Inc., priority 2005, dated 2012)

Experiments:
[1] = system: human facial skin biopsy punches rich in sebaceous glands; test: Sebum lipid accumulation in facial skin biopsy punches (C14-acetate, HPTLC); assay type: cell-based; settings: 25 um; two experiments, two donors
Text: The ability of THPED to selectively affect the content of squalene present in human sebum without affecting other components of sebum was illustrated by its ability to selectively reduce the content of squalene present in human skin using the following assay.
The Methods used are as described previously by Pappas et al. (J Invest Dermatol. 2002 January; 118(1):164-171). In summary, samples of facial skin (otherwise to be discarded) were obtained from female patients 45-65 years of age. The subjects were healthy females without a history of retinoid or laser treatment or chemotherapy. The specimens were obtained from facial lift surgery within 5 hours from the end of the surgery. Two mm biopsy punches were taken from tissues rich in sebaceous glands and cultured in serum free medium. […]
The lipid components extracted from the explanted glands were analyzed by chromatographic separation on 10×20 cm Whatman HPTLC Silica G plates that had been previously charged with chloroform, heated in a vacuum oven at 105° C. for 30 min and cooled to room temperature in a dessicator. […]

[2] = system: IL-2 (Interleukin-2); test: PHA-stimulated peripheral blood lymphocyte cytokine release: IL-2; assay type: cell-based; settings: Homo sapiens, 48 h, read-out: IL-2 % inh.
Text: The ability of various amines to affect the inflammatory responses was illustrated by its ability to reduce the production of cytokines by human lymphocytes stimulated with the T-cell receptor (TCR) activating agent phytohaemagglutinin (PHA) in the following assay.
Human leukocytes were collected from a healthy adult […] via leukopheresis, and adjusted to a density Of 1×10^6 cells/mL in serum free lymphocyte growth medium (ExVivo-15, Biowhittaker, Walkersville, Md.). PBLs were stimulated with 10 μg/mL PHA in the presence or absence of test samples following published methods (Hamamoto Y., et al. Exp Dermatol 2:231-235, 1993). The following compounds were evaluated N,N,N′,N′-Tetrakis(2-hydroxypropyl)ethylenediamine (THPED, available from BASF under the tradename “Quadrol” or “Neutrol”), N,N,N,N-Tetramethylethylenediamine (TEMED, available from Pfaltz & Bauer Chemicals (Waterbury, Conn.)), and Diethylenetriamine (available from Sigma-Aldrich) Following a 48 hour incubation at 37° C. with 5% CO2, the supernatant was removed and evaluated for cytokine content using commercially available multiplex cytokine detection kit.

[3] = system: Human keratinocytes; test: Visual contraction of keratinocytes by real time microscopy (cell area); assay type: cell-based; settings: 0.1%
Protocol: Human keratinocytes and Epilife culture media (Cascade Biologics, Portland, Oreg.) were cultured at 37° C. in a humidified atmospheres of 5% CO2/95% air. Glass Cover Slides (Applied Biophysics, Troy, N.Y.) were coated with 0.01 mg/ml Laminin V (Sigma Aldirch, St Louis, Mo.) in sterile Phosphate Buffered Saline (Gibco Life Sciences, San Diego, Calif.). Human keratinocytes were prepared at a density of 0.125×10^6 cells/mL in Epilife culture media. Human keratinocytes were plated at 3.75×10^4 cells/well on a 6 well plate containing Laminin coated coverslips and cultured at 37° C. in a humidified atmospheres of 5% […] for 48 hrs. Individual coverslips were transferred to a open bath imaging chamber (Warner Instruments, Hamden, Conn.) mounted on a Leica inverted microscope (Leitz DM1L) with an attached CCD camera. Cells were perfused with Hank's Buffered Salt Solution (HBSS; Gibco Life Sciences, San Diego, Calif.) at flow rate of 1 ml/min using a peristaltic pump (Cole Parmer, Vernon Hills, Ill.). […] Cell area was determined using Scion Image software (Version 4.0.2), and reductions in cell area were reported as the ratio of cell area after treatment to cell area prior to treatment

[4] = system: macrophages; settings: Bhide M V et al., Immunopharmacol. 1985; cited from earlier work

**Q.** With `CC(O)CN(CCN(CC(C)O)CC(C)O)CC(C)O` (centres unmarked) [THPED, N,N,N′,N′-Tetrakis(2-hydroxypropyl)ethylenediamine] as the compound, how does the “Inhibition of Squalene accumulation, (Percent of Vehicle Treated)” value [1] read?
**A.** 44.0%

**Q.** What about the “Inhibition of Triglyceride accumulation, (Percent of Vehicle Treated)” value [1] of the same compound?
**A.** 2.65%

**Q.** What about the inhibition at 10 µg/mL [2] of the same compound?
**A.** 10.6%

**Q.** And the inhibition at 100 µg/mL [2]?
**A.** 41.3%

**Q.** What about the “Visual Contraction of Human Keratinocytes (reduction in cell area, Mean ± Std Dev)” value ([3]; 2 Min) of the same compound?
**A.** 32.9% ±

**Q.** And the “Visual Contraction of Human Keratinocytes (reduction in cell area, Mean ± Std Dev)” value ([3]; 10 Min)?
**A.** 37.9% ± 10.7%

**Q.** And the “Visual Contraction of Human Keratinocytes (reduction in cell area, Mean ± Std Dev)” value ([3]; 20 Min)?
**A.** 47.3% ± 12.7%

**Q.** And the “effect on macrophages in culture” value [4]?
**A.** increased macrophage activation
